“And” between values parts separate entries of the source, which are not always exact repeats. Identical values can stand only once. Where a SMILES comes first, the peptide text is derived from it. The star is where a group is joined. Cbz = O=C(OCc1ccccc1)*
Tests used:
[1] = system: L-540; test: cells; type: functional, cell-based, Homo sapiens;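 also: growth inhibition of the human L-540 cell line, read out with a viability assay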
Description: SANGER: Inhibition of human L-540 cell growth in a cell viability assay.

[2] = system: OPM-2; test: cells; type: functional, cell-based, Homo sapiens;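 also: growth of OPM-2 cells measured with a viability assay, IC50 for suppression of proliferation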
Description: SANGER: Inhibition of human OPM-2 cell growth in a cell viability assay.

[3] = system: NCCIT; test: SANGER: Inhibition of human NCCIT cell growth in a cell viability assay.; type: functional, cell-based
[4] = system: NCI-H1963; test: cells; type: functional, cell-based, Homo sapiens;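 also: cell growth inhibition of the human line, determined with a cell viability assay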
Description: SANGER: Inhibition of human NCI-H1963 cell growth in a cell viability assay.

[5] = system: JIYOYE; test: cells; type: functional, cell-based, Homo sapiens
Description: SANGER: Inhibition of human JiyoyeP-2003 cell growth in a cell viability assay.

[6] = system: NCI-H719; test: cells; type: functional, cell-based, Homo sapiens;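 also: growth inhibition of the cultured cell line, read out with a viability assay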
Description: SANGER: Inhibition of human NCI-H719 cell growth in a cell viability assay.

[7] = system: NCI-H2171; test: cells; type: functional, cell-based, Homo sapiens;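 also: growth inhibition of human NCI-H2171 cells, read out by a cell viability assay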
Description: SANGER: Inhibition of human NCI-H2171 cell growth in a cell viability assay.

[8] = system: NCI-H64; test: cells; type: functional, cell-based, Homo sapiens;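 also: growth inhibition of NCI-H64 cells, read out with a cell viability assay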
Description: SANGER: Inhibition of human NCI-H64 cell growth in a cell viability assay.

[9] = system: CA46; test: cells; type: functional, cell-based, Homo sapiens;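 also: growth inhibition of human CA46 cells, read out by a cell viability assay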
Description: SANGER: Inhibition of human CA46 cell growth in a cell viability assay.

[10] = system: EB-3; test: cells; type: functional, cell-based, Homo sapiens;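 also: human EB-3 cells, growth inhibition read out via a cell viability assay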
Description: SANGER: Inhibition of human EB-3 cell growth in a cell viability assay.

[11] = system: CHP-126; test: cells; type: functional, cell-based, Homo sapiens
Description: SANGER: Inhibition of human CHP-126 cell growth in a cell viability assay.

[12] = system: MFH-ino; test: cells; type: functional, cell-based, Homo sapiens;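 also: growth inhibition of human MFH-ino cells, read out by a cell viability assay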
Description: SANGER: Inhibition of human MFH-ino cell growth in a cell viability assay.

[13] = system: REH; test: cells; type: functional, cell-based, Homo sapiens;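 also: growth inhibition of REH cells determined with a cell viability read-out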
Description: SANGER: Inhibition of human REH cell growth in a cell viability assay.

[14] = system: SK-MM-2; test: cells; type: functional, cell-based, Homo sapiens;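 also: growth inhibition of human SK-MM-2 cells, read out with a cell viability assay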
Description: SANGER: Inhibition of human SK-MM-2 cell growth in a cell viability assay.

[15] = system: WSU-NHL; test: cells; type: functional, cell-based, Homo sapiens;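 also: growth inhibition of human WSU-NHL cells, read out with a cell viability assay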
Description: SANGER: Inhibition of human WSU-NHL cell growth in a cell viability assay.

[16] = system: HCC1395; test: cells; type: functional, cell-based; conditions: Homo sapiens;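 also: growth inhibition of HCC1395 cells, read out by a cell viability assay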
Description: SANGER: Inhibition of human HCC1395 cell growth in a cell viability assay.

[17] = system: HMV-2 cell line; test: cells; type: functional, cell-based; conditions: Homo sapiens;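 also: growth inhibition of HMV-II cells, read out with a cell viability assay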
Description: SANGER: Inhibition of human HMV-II cell growth in a cell viability assay.

[18] = system: NCI-H460; test: cells; type: functional, cell-based; conditions: Homo sapiens;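 also: cell viability assay scoring growth inhibition of human NCI-H460 cells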
Description: SANGER: Inhibition of human NCI-H460 cell growth in a cell viability assay.

[19] = system: HSC-3; test: cells; type: functional, cell-based; conditions: Homo sapiens
Description: SANGER: Inhibition of human HSC-3 cell growth in a cell viability assay.

[20] = system: AN3-CA; test: cells; type: functional, cell-based; conditions: Homo sapiens;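 also: growth inhibition of human AN3-CA cells measured by a cell viability assay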
Description: SANGER: Inhibition of human AN3-CA cell growth in a cell viability assay.

| Compound | IC50 ([1]; Homo sapiens, L-540) [nM] | IC50 ([2]; Homo sapiens, OPM-2) [nM] | IC50 ([3]; Homo sapiens, NCCIT) [nM] | IC50 ([4]; Homo sapiens, NCI-H1963) [nM] | IC50 ([5]; Homo sapiens, JIYOYE) [nM] | IC50 ([6]; Homo sapiens, NCI-H719) [nM] | IC50 ([7]; Homo sapiens, NCI-H2171) [nM] | IC50 ([8]; Homo sapiens, NCI-H64) [nM] | IC50 ([9]; Homo sapiens, CA46) [nM] | IC50 ([10]; Homo sapiens, EB-3) [nM] | IC50 ([11]; Homo sapiens, CHP-126) [nM] | IC50 ([12]; Homo sapiens, MFH-ino) [nM] | IC50 ([13]; Homo sapiens, REH) [nM] | IC50 ([14]; Homo sapiens, SK-MM-2) [nM] | IC50 ([15]; Homo sapiens, WSU-NHL) [nM] | also measured |
| --- | --- | --- | --- | --- | --- | --- | --- | --- | --- | --- | --- | --- | --- | --- | --- | --- |
| C=CC(=O)N1CCCC(Nc2nc(Nc3ccc(N(C)C(=O)CC)cc3)nc3[nH]cnc23)C1 (stereo not drawn) | > 10200 | > 10200 | > 10200 | > 10200 | > 10200 | > 10200 | > 10200 | > 10200 | > 10200 | > 10200 | > 10200 | > 10200 | > 10200 | > 10200 | > 10200 |  |
| COc1ccc(N(C(=O)Oc2c(C)cccc2C)c2ccnc(Nc3ccc(N4CCN(C)CC4)cc3)n2)c(OC)c1 | > 5120 | > 5120 | > 5120 | > 5120 | > 5120 | > 5120 | > 5120 | > 5120 | > 5120 | 2160 | > 5120 | 239 | > 5120 | > 5120 | > 5120 |  |
| Cc1cc(N2CCOCC2)cc2[nH]c(-c3c(NC[C@@H](O)c4cccc(Cl)c4)cc[nH]c3=O)nc12 | > 5120 | 525 | 3830 | > 5120 | 5000 | > 5120 | > 5120 | > 5120 | > 5120 | > 5120 | > 5120 | 344 | > 5120 | 630 | > 5120 |  |
| NC(=O)c1cccc(-c2cc(Nc3ccc(OC(F)(F)F)cc3)ncn2)c1 | > 1280 | > 1280 | > 1280 | > 1280 | > 1280 | > 1280 | > 1280 | > 1280 | > 1280 | > 1280 | > 1280 | > 1280 | > 1280 | > 1280 | > 1280 |  |
| CC(C)C[C@H](NC(=O)[C@H](Cc1ccccc1)NC(=O)c1cnccn1)B(O)O [BORTEZOMIB] | 1.37 | 1.33 | 18.4 | > 20 | 5 | > 20 | > 20 | 2.44 | > 20 | 2.66 | 5.06 | 0.443 | > 20 | 1.09 | > 20 |  |
| C[C@@H](Oc1cc(-c2cnn(C3CCNCC3)c2)cnc1N)c1c(Cl)ccc(F)c1Cl [CRIZOTINIB] | > 2000 | > 2000 | > 2000 | > 2000 | > 2000 | > 2000 | > 2000 | > 2000 | > 2000 | > 2000 | > 2000 | > 2000 | > 2000 | > 2000 | > 2000 |  |
| Nc1ccccc1NC(=O)c1ccc(CNC(=O)OCc2cccnc2)cc1 [ENTINOSTAT] | 1110 | 415 | 386 | 116 | 1350 | 1180 | 1350 | 1280 | > 5000 | 4000 | 402 | 3470 | > 5000 | 399 | > 5000 |  |
| Cc1ccc(NC(=O)c2ccc(CN3CCN(C)CC3)cc2)cc1Nc1nccc(-c2cccnc2)n1 [IMATINIB] | > 2000 | > 2000 | > 2000 | > 2000 | > 2000 | > 2000 | > 2000 | > 2000 | > 2000 | > 2000 | > 2000 | > 2000 | > 2000 | > 2000 | > 2000 |  |
| CC(C)C[C@@H](C=O)NC(=O)[C@H](CC(C)C)NC(=O)[C@H](CC(C)C)NC(=O)OCc1ccccc1 [MG-132] (Cbz-Leu-Leu-Leu-aldehyde) |  |  |  | > 1000 |  |  |  |  | > 1000 |  |  |  |  |  |  | IC50 ([1]; l-540): > 1000 nM; IC50 ([2]; opm-2): 105 nM and 758 nM; IC50 ([3]; nccit): 318 nM and > 1000 nM; IC50 ([4]; nci-h1963): > 1000 nM; IC50 ([5]; jiyoye): > 1000 nM; IC50 ([6]; nci-h719): > 1000 nM; IC50 ([7]; nci-h2171): > 1000 nM; IC50 ([8]; nci-h64): > 1000 nM; IC50 ([9]; ca46): > 1000 nM; IC50 ([10]; eb-3): > 1000 nM; IC50 ([11]; chp-126): > 1000 nM; IC50 ([12]; mfh-ino): > 1000 nM and 111 nM; IC50 ([13]; reh): > 1000 nM; IC50 ([14]; sk-mm-2): > 1000 nM; IC50 ([15]; wsu-nhl): > 1000 nM |
| CO[C@@H]1[C@H](N(C)C(=O)c2ccccc2)C[C@H]2O[C@]1(C)n1c3ccccc3c3c4c(c5c6ccccc6n2c5c31)C(=O)NC4 [MIDOSTAURIN] |  |  | > 512 |  |  |  |  |  |  |  |  |  |  |  |  | IC50 [16]: 84.3 nM; IC50 [17]: > 512 nM; IC50 [18]: > 512 nM; IC50 [19]: > 512 nM; IC50 [20]: 322 nM |
| COc1cc(N2CCC(N3CCN(C)CC3)CC2)ccc1Nc1ncc(Cl)c(Nc2ccccc2S(=O)(=O)C(C)C)n1 [TAE-684] | 370 | 227 | > 2000 | > 2000 | > 2000 | > 2000 | > 2000 | > 2000 | > 2000 | > 2000 | 860 | 325 | > 2000 | 416 | > 2000 |  |

From ChEMBL document CHEMBL1201861, “Genomics of Drug Sensitity in Cancer screening data, Wellcome Trust Sanger Institute”
